The test system of assay [1] is BT-474 cells (HER2 overexpressing cell line). Description: BT-474 cell proliferation inhibitory activity (CellTiter-Glo, 120 hours). It counts as cell-based. As to the method:
To evaluate the cell proliferation inhibitory activity of the compound according to the present invention on HER2 and EGFR kinases, the following method was performed using HER2 overexpressing cell lines (SK-BR-3, BT-474, and N-87) and EGFR expressing cell line (HaCaT).
McCOY'S 5A supplemented with 10% FBS was used for SK-BR-3 cells, RPMI-1640 medium supplemented with 20% FBS was used for BT-474 cancer cells, and RPMI-1640 medium supplemented with 10% FBS was used for N-87 cancer cells. DMEM supplemented with 10% FBS was used for HaCaT cells.
For SK-BR-3 cells, 5000 cells were aliquoted into each well of a white clear bottom 96 well plate (Corning) 48 hours before treatment with the compounds of Examples. For BT-474 cells, 5000 cells were aliquoted into each well of a white clear bottom 96 well plate (Corning) 48 hours before treatment with the compounds of Examples. For N-87 cells, 5000 cells were aliquoted into each well of a white clear bottom 96 well plate (Corning) 24 hours before treatment with the compounds of Examples. For HaCaT cells, 3000 cells were aliquoted into each well of a white clear bottom 96 well plate (Corning) 24 hours before treatment with the compounds of Examples. For SK-BR-3 cells and BT-474 cells, the compounds of Examples were diluted in dimethyl sulfoxide (three-fold dilution, a total of 11 concentrations) and injected each in an amount of 1 μl to a final concentration of 0.2 nM to 10 μM. For N-87 cells, the compounds of Examples were diluted in dimethyl sulfoxide (five-fold dilution, a total of 11 concentrations) and injected each in an amount of 0.5 μl to a final concentration of […] to 5 μM. For HaCaT cells, the compounds of Examples were diluted in dimethyl sulfoxide (three-fold dilution, a total of 11 concentrations) and injected each in an amount of 0.5 μl to a final concentration of 0.8 nM to 45 μM. For the measurement of living cells, the cells were stored at room temperature for 10 minutes using CellTiter-Glo cell viability reagent (Promega) after a certain period of time (SK-BR-3: 120 hours, BT-474: 120 hours, N-87: 72 hours, and HaCaT: 72 hours) post treatment with the compounds of Examples, and the luminescence intensity thereof was measured using a reader (SynergyNeo, Biotek). Each test was repeated three times.
The result values were calculated as a cell growth rate (%) compared to those of the control group. A graph was created using the GraphPad Prism version 5.0 program, and GI50 values were calculated.
(In ATP-based viability assays light output follows the ATP content of the culture.)

Assay [2] relates to HaCaT cells (EGFR expressing cell line). The assay can be described thus: HaCaT cell proliferation inhibitory activity (CellTiter-Glo, 72 hours). It is filed as cell-based. The essentials: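 Plate cells (HaCaT 3000/well, others 5000/well), then allow 24 h or 48 h before dosing, with the longer wait for SK-BR-3 and BT-474. Add compounds as 3-fold series, or 5-fold for N-87, at 11 concentrations each. Read viability luminescence, compute growth % against control and derive GI50.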

Where two headings read alike, the source gives them in different places. Some results are limits rather than exact numbers.

As to `C=CC(=O)N1[C@@H]2CC[C@H]1C[C@@H](Oc1cc3c(Nc4cc(-c5ccco5)ccc4OC)ncnc3cc1OC)C2` [Example 167, 1-((1R,3r,5S)-3-((4-((5-(furan-2-yl)-2-methoxyphenyl)amino)-7-methoxy-quinazolin-6-yl)oxy)-8-azabicyclo [3.2.1]octan-8-yl)prop-2-en-1-one], the GI50 in assay [1] (Homo sapiens) and in assay [2] (Homo sapiens) was at most 150 nM each time.
In the case of `C=C(F)C(=O)N1CCC(Oc2cc3c(Nc4cc(-c5ccco5)ccc4OC)ncnc3cc2OC)CC1` [Example 184, 2-fluoro-1-(4-((4-((5-(furan-2-yl)-2-methoxyphenyl)amino)-7-methoxy-quinazolin-6-yl)oxy)piperidin-1-yl)prop-2-en-1-one], the GI50 (usually the concentration at which growth is held to half of that of the control) in assay [1] (Homo sapiens) is above 1000 nM; in assay [2] (Homo sapiens), 150 to 1000 nM.
For `C=CC(=O)N1CCC(Oc2cc3c(Nc4cc(-c5ccc(C#N)o5)ccc4OC)ncnc3cc2OC)CC1` [Example 183, 5-(3-((6-((1-acryloyl-piperidin-4-yl)oxy)-7-methoxy-quinazolin-4-yl)amino)-4-methoxyphenyl) furan-2-carbonitrile] the same measures were 150 to 1000 nM and 150 to 1000 nM.
In the case of `C=CC(=O)N1CCC(F)(F)C(Oc2cc(OC)cc3ncnc(Nc4cc(-c5ccco5)ccc4OC)c23)C1` (centres unmarked) [Example 53, 1-(4,4-difluoro-3-((4-((5-(furan-2-yl)-2-methoxyphenyl)amino)-7-methoxy-quinazolin-5-yl)oxy)piperidin-1-yl)prop-2-en-1-one], the 50% growth inhibitory concentration (GI50) in assay [1] (Homo sapiens) and in assay [2] (Homo sapiens) was at most 150 nM throughout.
Regarding `C=CC(=O)N1CCC(Oc2cc3c(Nc4cc(-c5ccc(F)o5)ccc4OC)ncnc3cc2OC)CC1` [Example 88, 1-(4-((4-((5-(5-fluorofuran-2-yl)-2-methoxyphenyl)amino)-7-methoxy-quinazolin-6-yl)oxy)piperidin-1-yl)prop-2-en-1-one], the GI50 in assay [1] (Homo sapiens) and in assay [2] (Homo sapiens) was at most 150 nM in each case.
For `COc1cc2ncnc(Nc3cc(-c4ccc(F)cc4F)ccc3OC)c2cc1NC(=O)/C=C/CN1CCN(C)CC1` [Example 317, (E)-N-(4-((2′,4′-difluoro-4-methoxy-[1,1′-biphenyl]-3-yl)amino)-7-methoxyquinazolin-6-yl)-4-(4-methylpiperazin-1-yl)but-2-enamide], the GI50 in assay [1] (Homo sapiens) and in assay [2] (Homo sapiens) was at most 150 nM in each case.
Take `C=CC(=O)N1CCC2(CC1)CN(c1cc3c(Nc4cc(-c5ccco5)ccc4OC)ncnc3cc1OC)C2` [Example 324, 1-(2-(4-((5-(furan-2-yl)-2-methoxyphenyl)amino)-7-methoxyquinazolin-6-yl)-2,7-diazaspiro[3.5]nonan-7-yl)prop-2-en-1-one]: the values for the GI50 in assay [1] (Homo sapiens) and in assay [2] (Homo sapiens) were above 1000 nM and 150 to 1000 nM, respectively.
`COc1ccc(-c2ccco2)cc1Nc1ncnc2cc(OC)c(OC3CCN(C(=O)C(F)Cl)CC3)cc12` (centres unmarked) [Example 188, 2-chloro-2-fluoro-1-(4-((4-((5-(furan-2-yl)-2-methoxyphenyl)amino)-7-methoxy-quinazolin-6-yl)oxy)piperidin-1-yl)ethan-1-one]: the 50% growth inhibitory concentration (GI50) in assay [1] (Homo sapiens) was 150 to 1000 nM; in assay [2] (Homo sapiens), at most 150 nM.
Consider `C=CC(=O)N1CCC(Oc2cc3c(Nc4cc(-c5cccc(OC(F)(F)F)c5)ccc4OC)ncnc3cc2OC)CC1` [Example 211, 1-(4-((7-methoxy-4-((4-methoxy-3′-(trifluoro-methoxy)-[1,1′-biphenyl]-3-yl)amino)quinazolin-6-yl)oxy)piperidin-1-yl)prop-2-en-1-one], for which the GI50 in assay [1] (Homo sapiens) is at most 150 nM; in assay [2] (Homo sapiens), 150 to 1000 nM.
Taken in the same sequence, the figures for `COc1ccc(-c2ccc(F)cc2F)cc1Nc1ncnc2ccc(NC(=O)/C=C/CN(C)C)c(Cl)c12` [Example 320, (E)-N-(5-chloro-4-((2′,4′-difluoro-4-methoxy-[1,1′-biphenyl]-3-yl)amino)quinazolin-6-yl)-4-(dimethylamino)but-2-enamide] were 150 to 1000 nM and 150 to 1000 nM.
In the case of `C=CC(=O)N1CCC(Oc2cc3c(Nc4cc(-c5c(F)c(F)c(F)c(F)c5F)ccc4OC)ncnc3cc2OC)CC1` [Example 198], the GI50 in assay [1] (Homo sapiens) was 150 to 1000 nM; in assay [2] (Homo sapiens), above 1000 nM.
Consider `C=CC(=O)N1CCC(Oc2cc3c(Nc4cc(-c5ccc(F)c(F)c5F)ccc4OC)ncnc3cc2OC)CC1` [Example 203, 1-(4-((7-methoxy-4-((2′,3′,4′-trifluoro-4-methoxy-[1,1′-biphenyl]-3-yl)amino)quinazolin-6-yl)oxy)piperidin-1-yl)prop-2-en-1-one], for which the GI50 in assay [1] (Homo sapiens) was at most 150 nM; in assay [2] (Homo sapiens) it was 150 to 1000 nM.
For `C=CC(=O)N1CCC(Oc2cc3c(Nc4c(OC)ccc(-c5ccco5)c4F)ncnc3cc2OC)CC1` [Example 185, 1-(4-((4-((2-fluoro-3-(furan-2-yl)-6-methoxyphenyl)amino)-7-methoxy-quinazolin-6-yl)oxy)piperidin-1-yl)prop-2-en-1-one], the GI50 in assay [1] (Homo sapiens) and in assay [2] (Homo sapiens) was at most 150 nM throughout.
On to `C=CC(=O)N1CCC(Oc2cc3c(Nc4cc(-c5ccc6ccsc6c5)ccc4OC)ncnc3cc2OC)CC1` [Example 193, 1-(4-((4-((5-(benzo[b]thiophen-6-yl)-2-methoxyphenyl)amino)-7-methoxy-quinazolin-6-yl)oxy)piperidin-1-yl)prop-2-en-1-one], for which the concentration for 50% growth inhibition (GI50) in assay [1] (Homo sapiens) is 150 to 1000 nM; in assay [2] (Homo sapiens) it was at most 150 nM.
Regarding `COc1cc2ncnc(Nc3cc(-c4ccc(F)cc4F)ccc3OC)c2cc1NC(=O)/C=C/CN1C2COCC1C2` [Example 319], the GI50 in assay [1] (Homo sapiens) and in assay [2] (Homo sapiens) was at most 150 nM in each case.
Take `C=CC(=O)N1CCC(Oc2cc3c(Nc4cc(C5=CCOCC5)ccc4OC)ncnc3cc2OC)CC1` [Example 216, 1-(4-((4-((5-(3,6-dihydro-2H-pyran-4-yl)-2-methoxyphenyl)amino)-7-methoxy-quinazolin-6-yl)oxy)piperidin-1-yl)prop-2-en-1-one]: the GI50 in assay [1] (Homo sapiens) and in assay [2] (Homo sapiens) was 150 to 1000 nM throughout.
With `C=CC(=O)N1CCC(Nc2cc3c(Nc4cc(-c5ccc(F)cc5F)ccc4OC)ncnc3cc2OC(F)F)CC1` [Example 297, 1-(4-((4-((2′,4′-difluoro-4-methoxy-[1,1′-biphenyl]-3-yl)amino)-7-(difluoromethoxy)quinazolin-6-yl)amino)piperidin-1-yl)prop-2-en-1-one], the GI50 in assay [1] (Homo sapiens) and in assay [2] (Homo sapiens) was at most 150 nM throughout.
Turning to `C=CC(=O)N1CCC(F)(F)C(Oc2cc(OC)cc3ncnc(Nc4cc(-c5ccc(F)cc5F)ccc4OC)c23)C1` (centres unmarked) [Example 201, 1-(3-((4-((2′,4′-difluoro-4-methoxy-[1,1′-biphenyl]-3-yl)amino)-7-methoxy-quinazolin-5-yl)oxy)-4,4-difluoro-piperidin-1-yl)prop-2-en-1-one], the concentration for 50% growth inhibition (GI50) in assay [1] (Homo sapiens) and in assay [2] (Homo sapiens) was at most 150 nM each time.
Take `C=CC(=O)N1CCC(Oc2cc3c(Nc4cc(-c5cccc(C(=O)OC)c5)ccc4OC)ncnc3cc2OC)CC1` [Example 204, methyl 3′-((6-((1-acryloyl-piperidin-4-yl)oxy)-7-methoxy-quinazolin-4-yl)amino)-4′-methoxy-[1,1-biphenyl]-3-carboxylate]: the GI50 in assay [1] (Homo sapiens) was at most 150 nM; in assay [2] (Homo sapiens) it was 150 to 1000 nM.
Turning to `C=CC(=O)N1CCC(Oc2cc(OC)cc3ncnc(Nc4cc(-c5ccco5)ccc4OC)c23)C(F)(F)C1` (centres unmarked) [Example 99, 1-(3,3-difluoro-4-((4-((5-(furan-2-yl)-2-methoxyphenyl)amino)-7-methoxy-quinazolin-5-yl)oxy)piperidin-1-yl)prop-2-en-1-one], the GI50 in assay [1] and in assay [2] was at most 150 nM in each case.
Take `C=CC(=O)N1CCC(Oc2cc(OC)cc3ncnc(Nc4cc(-c5ccco5)ccc4OC)c23)C(F)(F)C1` (centres unmarked) [Example 195, 1-(3,3-difluoro-4-((4-((5-(furan-2-yl)-2-methoxyphenyl)amino)-7-methoxy-quinazolin-5-yl)oxy)piperidin-1-yl)prop-2-en-1-one]: the GI50 in assay [1] (Homo sapiens) and in assay [2] (Homo sapiens) was at most 150 nM throughout.
With `C=CC(=O)Nc1cccc(-c2ccc(OC)c(Nc3ncnc4cc(OC)c(OC5CCN(C(=O)C=C)CC5)cc34)c2)c1` [Example 208, N-(3′-((6-((1-acryloyl-piperidin-4-yl)oxy)-7-methoxy-quinazolin-4-yl)amino)-4′-methoxy-[1,1′-biphenyl]-3-yl)acrylamide], the figures for the GI50 in assay [1] (Homo sapiens) and in assay [2] (Homo sapiens) were 150 to 1000 nM and above 1000 nM, respectively.

The values above are taken from patent publication US20240246940A1, “HETEROARYL DERIVATIVE COMPOUND AND USE THEREOF” (VORONOI INC., priority 2021, published 2024).
